Entries after “also recorded” stand apart in the source; their conditions may differ.
What was measured:
[1] = tested on: broccoli, radish, alfalfa, soybean, barely, wheat, sorghum and maize seeds; assay: Germination inhibition in diverse species; format: in vivo; conditions: barley
Description: (§1) FIG. 13A-FIG. 13E. LC66C6 modulates ABA responses in diverse species. Germination inhibition (A) and transpirational water loss in detached leaves 2-hours after detachment (B) in response to compounds shown. The expression of ABA-responsive marker genes in Soybean (C), Barley (D) and Maize (E) after application of chemicals. D, P, L and A indicate DMSO, pyrabactin, LC66C6 and (+)-ABA, respectively.

[2] = tested on: detached leaves of crop species; assay: Water loss analyses in diverse species; format: in vivo, soybean, barley, maize and other species; conditions: over a period of 2 hours
Procedure: as §1
For water loss analyses using soybean barley and maize, 100 μM chemical solution containing 0.05% Tween-20 was sprayed on to the aerial parts of the plants. The soybean, barley and maize plants used were approximately 4-, 2- and 2-weeks old respectively. Compounds were applied 16 hours before water loss assays were conduction. To measure water loss entire shoots were detached and their fresh weight monitored.

[3] = tested on: Chlamydomonas; assay: Colony growth of Chlamydomonas with and without salinity and osmotic stress; format: in vivo
Procedure: (§2) FIG. 17A-FIG. 17D. The effect of ABA and its agonists in Physcomitrella patens and Chlamydomonas. Protonemal growth images (A) and quantitative analysis (B) of the effects of ABA and agonists on Phsycomitrella patens. Protonema were grown on 200 μM of specific test chemical for 10 days. […] Pyrabactin bleached protonema. (C) The expression of ABA-responsive genes of Physcomitrella patens. Protonema were treated with 200 μM chemical solutions for 3 h. (D) Colony growth of Chlamydomonas on the chemical with salinity stress and osmotic stress. There was no effect of ABA and LC66C6 on the Chlamydomonas growth with and without stresses.

[4] = tested on: Physcomitrella patens; assay: Protonema growth of moss; format: in vivo; conditions: 200 μM for 10 days
Procedure: as §2

[5] = tested on: ABA-responsive genes; assay: ABA-responsive gene expression in moss; format: in vivo, Physcomitrella patens; conditions: 200 μM for 3 h
Procedure: as §2

SMILES | Inhibition of germination in diverse species [1] | Transpirational water loss in detached leaves of diverse species [2] | Growth of Chlamydomonas [3] | Growth of protonema [4] | Expression of ABA-responsive genes in moss [5]
CCCN1C(=O)CCc2cc(NS(=O)(=O)Cc3ccc(C)cc3)ccc21 [LC66C6] | inhibits germination; also recorded: greater than pyrabactin | reduces transpirational water loss | no effect | weak but significant inhibition | can induce the expression of ABA-responsive genes in moss
O=S(=O)(NCc1ccccn1)c1ccc(Br)c2ccccc12 [pyrabactin, reference compound] | – | – | bleached the Chlamydomonas | bleached the protonema | –

Reference: patent US20160280651A1, “COMPOUNDS THAT INDUCE ABA RESPONSES” (THE REGENTS OF THE UNIVERSITY OF CALIFORNIA, priority 2013, published 2016)
